Activity calls are given as the source filed them. The calls are words filed in the database; no cut-off is given here.
Columns and labels:
[1] = biological target: Tyrosine-protein kinase Fer (Homo sapiens) (UniProt P16591); settings: Compound concentration 1000.0 nM
[2] = biological target: Mitogen-activated protein kinase 4 (Homo sapiens) (UniProt P31152); settings: Compound concentration 1000.0 nM
[3] = biological target: Activin receptor type-1B (Homo sapiens) (UniProt P36896); settings: Compound concentration 1000.0 nM
[4] = biological target: Calcium/calmodulin-dependent protein kinase kinase 1 (Homo sapiens) (UniProt Q8N5S9); settings: Compound concentration 1000.0 nM
[5] = biological target: Serine/threonine-protein kinase Nek7 (Homo sapiens) (UniProt Q8TDX7); settings: Compound concentration 1000.0 nM
[6] = biological target: RAF proto-oncogene serine/threonine-protein kinase (Homo sapiens) (UniProt P04049); settings: Compound concentration 1000.0 nM
[7] = biological target: Vascular endothelial growth factor receptor 3 (Homo sapiens) (UniProt P35916); settings: Compound concentration 1000.0 nM
[8] = biological target: Dual specificity testis-specific protein kinase 1 (Homo sapiens) (UniProt Q15569); settings: Compound concentration 1000.0 nM
[9] = test system: Proto-oncogene tyrosine-protein kinase receptor Ret (Homo sapiens), P07949 [V804M]; settings: Compound concentration 1000.0 nM
[10] = biological target: Cyclin-dependent kinase 7 (Homo sapiens) (UniProt P50613); settings: Compound concentration 1000.0 nM
[11] = test system: Receptor-type tyrosine-protein kinase FLT3 (Homo sapiens), P36888 [K663Q]; settings: Compound concentration 1000.0 nM
[12] = test system: Epidermal growth factor receptor (Homo sapiens), P00533 [T790M]; settings: Compound concentration 1000.0 nM
[13] = biological target: Mitogen-activated protein kinase 12 (Homo sapiens) (UniProt P53778); settings: Compound concentration 1000.0 nM
[14] = biological target: Sodium-dependent dopamine transporter (Homo sapiens, UniProt Q01959); test: DATRANS/H Eurofins-Panlabs selectivity data (BI); settings: Compound concentration 10.0 uM
[15] = biological target: Cyclin-dependent kinase 17 (Homo sapiens) (UniProt Q00537); settings: Compound concentration 1000.0 nM
[16] = test system: Proto-oncogene tyrosine-protein kinase receptor Ret (Homo sapiens), P07949 [V804L]; settings: Compound concentration 1000.0 nM
[17] = biological target: Interleukin-1 receptor-associated kinase 4 (Homo sapiens) (UniProt Q9NWZ3); settings: Compound concentration 1000.0 nM
[18] = biological target: Carbonic anhydrase 6 (Homo sapiens) (UniProt P23280); test: CANHYDRASE Eurofins-Panlabs selectivity data (BI); settings: Compound concentration 10.0 uM
[19] = biological target: D(1A) dopamine receptor (Homo sapiens) (UniProt P21728); test: D1/HU Eurofins-Panlabs selectivity data (BI); settings: Compound concentration 10.0 uM
[20] = biological target: Nitric oxide synthase 3 (Rattus norvegicus) (UniProt Q62600); test: CNOS Eurofins-Panlabs selectivity data (BI); settings: Compound concentration 10.0 uM
[21] = biological target: Cyclin-dependent kinase 14 (Homo sapiens) (UniProt O94921); settings: Compound concentration 1000.0 nM
[22] = test system: Tyrosine-protein kinase ABL1 (Homo sapiens), P00519 [T315I]; settings: Compound concentration 1000.0 nM
[23] = biological target: Tyrosine-protein kinase JAK1 (Homo sapiens) (UniProt P23458); settings: Compound concentration 1000.0 nM
[24] = biological target: Phosphorylase b kinase regulatory subunit alpha, liver isoform (Homo sapiens) (UniProt P46019); settings: Compound concentration 1000.0 nM
[25] = biological target: G protein-coupled receptor kinase 4 (Homo sapiens) (UniProt P32298); settings: Compound concentration 1000.0 nM
[26] = biological target: Serine/threonine-protein kinase MRCK beta (Homo sapiens) (UniProt Q9Y5S2); settings: Compound concentration 1000.0 nM
[27] = biological target: Ephrin type-A receptor 3 (Homo sapiens) (UniProt P29320); settings: Compound concentration 1000.0 nM
[28] = biological target: T1, Bifunctional epoxide hydrolase 2 (Homo sapiens, UniProt P34913); test: Human soluble epoxide hydrolase inhibition
T1 sequence (P34913 whole entry): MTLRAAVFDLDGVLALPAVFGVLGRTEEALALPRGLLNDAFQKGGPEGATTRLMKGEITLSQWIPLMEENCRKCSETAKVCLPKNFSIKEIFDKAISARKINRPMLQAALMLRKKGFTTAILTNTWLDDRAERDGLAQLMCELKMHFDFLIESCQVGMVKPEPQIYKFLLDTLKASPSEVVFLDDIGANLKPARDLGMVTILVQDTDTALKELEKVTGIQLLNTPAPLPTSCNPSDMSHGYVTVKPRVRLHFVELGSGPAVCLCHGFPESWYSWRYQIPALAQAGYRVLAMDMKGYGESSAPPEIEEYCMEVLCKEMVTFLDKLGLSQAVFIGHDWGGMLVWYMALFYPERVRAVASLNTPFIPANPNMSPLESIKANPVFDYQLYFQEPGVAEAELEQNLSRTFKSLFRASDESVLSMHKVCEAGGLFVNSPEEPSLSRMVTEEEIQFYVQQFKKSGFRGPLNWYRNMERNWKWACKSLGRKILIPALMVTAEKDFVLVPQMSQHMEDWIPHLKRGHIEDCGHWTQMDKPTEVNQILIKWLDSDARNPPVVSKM

Rattus norvegicus = organism: Rattus norvegicus; settings: Compound concentration 10.0 uM
[29] = biological target: Dual specificity protein kinase CLK2 (Homo sapiens) (UniProt P49760); settings: Compound concentration 1000.0 nM
[30] = biological target: Atypical kinase COQ8A, mitochondrial (Homo sapiens) (UniProt Q8NI60); settings: Compound concentration 1000.0 nM
[31] = biological target: Calcium/calmodulin-dependent protein kinase type II subunit alpha (Homo sapiens) (UniProt Q9UQM7); settings: Compound concentration 1000.0 nM
[32] = biological target: Thromboxane A2 receptor (Homo sapiens) (UniProt P21731); test: PROST_A2TP Eurofins-Panlabs selectivity data (BI); settings: Compound concentration 10.0 uM
[33] = biological target: Tyrosine-protein kinase ITK/TSK (Homo sapiens) (UniProt Q08881); settings: Compound concentration 1000.0 nM
[34] = biological target: Interleukin-1 receptor-associated kinase 1 (Homo sapiens) (UniProt P51617); settings: Compound concentration 1000.0 nM
[35] = biological target: Dual serine/threonine and tyrosine protein kinase (Homo sapiens) (UniProt Q6XUX3); settings: Compound concentration 1000.0 nM
[36] = biological target: Serine/threonine-protein kinase BRSK2 (Homo sapiens) (UniProt Q8IWQ3); settings: Compound concentration 1000.0 nM
[37] = biological target: Mitogen-activated protein kinase 14 (Homo sapiens) (UniProt Q16539); settings: Compound concentration 1000.0 nM

Sequence of RAF proto-oncogene serine/threonine-protein kinase (Homo sapiens) (P04049 whole entry): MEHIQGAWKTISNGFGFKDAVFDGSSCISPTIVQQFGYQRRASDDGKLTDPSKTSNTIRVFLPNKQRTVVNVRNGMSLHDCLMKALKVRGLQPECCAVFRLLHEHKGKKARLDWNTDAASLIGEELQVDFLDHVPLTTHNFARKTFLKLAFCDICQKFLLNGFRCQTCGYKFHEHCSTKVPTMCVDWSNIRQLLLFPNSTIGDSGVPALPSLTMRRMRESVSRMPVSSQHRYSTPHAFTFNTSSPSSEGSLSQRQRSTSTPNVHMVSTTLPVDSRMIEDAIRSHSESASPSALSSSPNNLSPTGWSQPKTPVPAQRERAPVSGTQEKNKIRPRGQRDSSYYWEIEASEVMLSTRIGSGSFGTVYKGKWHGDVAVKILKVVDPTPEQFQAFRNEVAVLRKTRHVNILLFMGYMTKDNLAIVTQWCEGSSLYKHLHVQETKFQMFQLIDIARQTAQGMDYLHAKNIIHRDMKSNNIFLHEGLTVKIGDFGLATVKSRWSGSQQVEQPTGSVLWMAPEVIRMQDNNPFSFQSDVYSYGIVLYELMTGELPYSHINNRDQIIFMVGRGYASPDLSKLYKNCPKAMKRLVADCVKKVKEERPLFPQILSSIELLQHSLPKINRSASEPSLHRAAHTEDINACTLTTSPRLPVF
Sequence of Tyrosine-protein kinase Fer (Homo sapiens) (P16591 whole entry, looked up): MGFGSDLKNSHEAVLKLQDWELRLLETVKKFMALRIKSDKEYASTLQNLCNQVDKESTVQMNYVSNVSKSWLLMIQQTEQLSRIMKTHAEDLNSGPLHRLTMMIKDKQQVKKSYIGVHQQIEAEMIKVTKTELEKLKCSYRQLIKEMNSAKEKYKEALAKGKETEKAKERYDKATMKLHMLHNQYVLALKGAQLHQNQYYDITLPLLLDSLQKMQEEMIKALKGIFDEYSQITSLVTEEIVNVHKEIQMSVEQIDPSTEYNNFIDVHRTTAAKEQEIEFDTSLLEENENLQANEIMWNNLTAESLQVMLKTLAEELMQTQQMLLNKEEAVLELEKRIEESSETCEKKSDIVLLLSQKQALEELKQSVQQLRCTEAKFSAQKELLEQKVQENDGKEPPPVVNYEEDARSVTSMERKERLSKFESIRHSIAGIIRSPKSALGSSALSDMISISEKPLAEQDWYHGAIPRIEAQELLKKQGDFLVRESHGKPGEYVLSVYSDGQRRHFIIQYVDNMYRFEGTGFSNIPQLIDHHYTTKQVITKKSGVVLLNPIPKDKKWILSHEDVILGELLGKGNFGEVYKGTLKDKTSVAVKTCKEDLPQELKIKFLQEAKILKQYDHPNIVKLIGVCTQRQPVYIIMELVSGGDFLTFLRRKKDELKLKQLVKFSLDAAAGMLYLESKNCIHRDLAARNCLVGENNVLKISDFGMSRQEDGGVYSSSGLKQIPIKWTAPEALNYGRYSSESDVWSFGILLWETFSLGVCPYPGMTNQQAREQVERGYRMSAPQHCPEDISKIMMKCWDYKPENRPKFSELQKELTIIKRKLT
Sequence of Carbonic anhydrase 6 (Homo sapiens) (P23280 whole entry): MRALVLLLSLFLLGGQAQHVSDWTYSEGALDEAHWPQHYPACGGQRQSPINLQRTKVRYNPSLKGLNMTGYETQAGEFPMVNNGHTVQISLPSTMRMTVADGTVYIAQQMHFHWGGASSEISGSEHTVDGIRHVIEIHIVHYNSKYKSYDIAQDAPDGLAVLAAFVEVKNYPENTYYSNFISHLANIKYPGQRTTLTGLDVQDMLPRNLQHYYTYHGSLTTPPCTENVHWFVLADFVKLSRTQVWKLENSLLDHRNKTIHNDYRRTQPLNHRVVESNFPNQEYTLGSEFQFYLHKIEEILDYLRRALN
Sequence of Vascular endothelial growth factor receptor 3 (Homo sapiens) (P35916 whole entry): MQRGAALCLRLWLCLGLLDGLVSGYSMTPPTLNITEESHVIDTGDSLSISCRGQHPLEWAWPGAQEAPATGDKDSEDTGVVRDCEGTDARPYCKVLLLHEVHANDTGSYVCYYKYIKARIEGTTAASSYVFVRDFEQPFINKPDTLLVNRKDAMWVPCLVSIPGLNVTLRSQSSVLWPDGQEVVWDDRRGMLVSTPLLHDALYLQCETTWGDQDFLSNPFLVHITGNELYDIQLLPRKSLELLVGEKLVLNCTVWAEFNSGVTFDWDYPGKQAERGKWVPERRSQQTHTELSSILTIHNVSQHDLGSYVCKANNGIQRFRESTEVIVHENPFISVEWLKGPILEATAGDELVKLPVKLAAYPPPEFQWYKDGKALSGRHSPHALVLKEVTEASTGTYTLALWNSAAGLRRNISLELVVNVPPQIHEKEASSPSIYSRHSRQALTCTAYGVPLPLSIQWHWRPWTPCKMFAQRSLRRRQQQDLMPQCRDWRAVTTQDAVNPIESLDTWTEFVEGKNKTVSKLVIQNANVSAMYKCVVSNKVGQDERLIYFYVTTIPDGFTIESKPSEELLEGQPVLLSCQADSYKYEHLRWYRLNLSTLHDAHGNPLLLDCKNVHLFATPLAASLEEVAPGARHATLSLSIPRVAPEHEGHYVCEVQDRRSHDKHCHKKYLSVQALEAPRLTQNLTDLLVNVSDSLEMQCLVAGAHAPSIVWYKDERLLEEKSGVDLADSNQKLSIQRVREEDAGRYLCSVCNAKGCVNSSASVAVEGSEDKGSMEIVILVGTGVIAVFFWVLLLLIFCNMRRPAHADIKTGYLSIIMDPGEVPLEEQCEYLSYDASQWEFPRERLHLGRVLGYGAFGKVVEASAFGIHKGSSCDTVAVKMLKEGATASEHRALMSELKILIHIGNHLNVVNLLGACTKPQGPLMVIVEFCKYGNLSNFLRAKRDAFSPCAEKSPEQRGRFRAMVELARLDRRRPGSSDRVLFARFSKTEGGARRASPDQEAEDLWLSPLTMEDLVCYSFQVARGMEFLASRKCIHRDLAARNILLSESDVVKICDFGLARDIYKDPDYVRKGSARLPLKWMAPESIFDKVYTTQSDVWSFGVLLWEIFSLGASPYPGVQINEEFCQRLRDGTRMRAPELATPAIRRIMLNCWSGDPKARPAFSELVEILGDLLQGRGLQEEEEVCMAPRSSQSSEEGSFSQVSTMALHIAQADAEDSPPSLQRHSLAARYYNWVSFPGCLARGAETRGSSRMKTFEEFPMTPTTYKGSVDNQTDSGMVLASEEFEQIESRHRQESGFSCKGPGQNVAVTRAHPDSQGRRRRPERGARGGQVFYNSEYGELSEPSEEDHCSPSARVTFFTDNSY
Sequence of Activin receptor type-1B (Homo sapiens) (P36896 whole entry): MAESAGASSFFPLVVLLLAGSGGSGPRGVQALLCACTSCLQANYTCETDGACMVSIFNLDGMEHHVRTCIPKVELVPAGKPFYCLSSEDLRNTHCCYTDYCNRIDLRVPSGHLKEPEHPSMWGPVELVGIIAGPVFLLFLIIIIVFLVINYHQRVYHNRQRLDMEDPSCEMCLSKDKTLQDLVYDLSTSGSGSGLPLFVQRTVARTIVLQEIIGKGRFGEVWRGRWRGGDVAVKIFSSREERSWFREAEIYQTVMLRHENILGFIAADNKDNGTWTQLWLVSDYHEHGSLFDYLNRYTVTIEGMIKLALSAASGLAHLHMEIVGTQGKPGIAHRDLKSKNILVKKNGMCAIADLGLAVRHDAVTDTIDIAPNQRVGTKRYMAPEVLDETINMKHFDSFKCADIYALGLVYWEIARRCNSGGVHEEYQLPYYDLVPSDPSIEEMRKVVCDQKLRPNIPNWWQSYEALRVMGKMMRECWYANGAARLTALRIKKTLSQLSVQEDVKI
Sequence of Proto-oncogene tyrosine-protein kinase receptor Ret (Homo sapiens), P07949 [V804M] (P07949 whole entry V804M): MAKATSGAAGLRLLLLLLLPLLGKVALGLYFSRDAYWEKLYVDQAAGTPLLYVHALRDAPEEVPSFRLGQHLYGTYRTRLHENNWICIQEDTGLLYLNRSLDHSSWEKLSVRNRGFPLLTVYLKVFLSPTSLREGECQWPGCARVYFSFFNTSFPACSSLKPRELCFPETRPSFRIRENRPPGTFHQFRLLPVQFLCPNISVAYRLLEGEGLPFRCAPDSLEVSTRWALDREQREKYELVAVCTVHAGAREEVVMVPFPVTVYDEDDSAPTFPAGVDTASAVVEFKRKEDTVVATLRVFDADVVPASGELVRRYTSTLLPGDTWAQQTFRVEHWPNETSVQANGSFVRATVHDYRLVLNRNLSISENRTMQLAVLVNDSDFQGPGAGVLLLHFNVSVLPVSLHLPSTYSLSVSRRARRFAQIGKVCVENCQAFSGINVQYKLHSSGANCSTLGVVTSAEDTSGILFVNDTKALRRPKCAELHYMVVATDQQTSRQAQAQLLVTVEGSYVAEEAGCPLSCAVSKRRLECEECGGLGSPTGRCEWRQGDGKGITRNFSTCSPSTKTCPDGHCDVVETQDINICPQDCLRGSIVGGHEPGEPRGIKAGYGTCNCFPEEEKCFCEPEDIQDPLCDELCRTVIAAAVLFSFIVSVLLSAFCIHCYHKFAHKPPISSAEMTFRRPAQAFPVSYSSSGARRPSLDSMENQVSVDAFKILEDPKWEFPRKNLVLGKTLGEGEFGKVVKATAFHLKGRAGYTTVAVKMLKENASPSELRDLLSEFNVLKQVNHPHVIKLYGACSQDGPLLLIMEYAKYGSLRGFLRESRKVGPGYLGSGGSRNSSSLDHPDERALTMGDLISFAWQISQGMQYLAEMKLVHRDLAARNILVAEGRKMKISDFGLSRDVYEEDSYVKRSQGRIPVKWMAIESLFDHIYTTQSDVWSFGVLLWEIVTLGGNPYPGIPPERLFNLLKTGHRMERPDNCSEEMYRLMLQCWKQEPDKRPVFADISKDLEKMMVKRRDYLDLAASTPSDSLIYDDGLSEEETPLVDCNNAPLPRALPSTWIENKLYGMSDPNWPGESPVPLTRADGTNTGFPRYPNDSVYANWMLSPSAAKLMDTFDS
Sequence of Proto-oncogene tyrosine-protein kinase receptor Ret (Homo sapiens), P07949 [V804L] (P07949 whole entry V804L): as the sequence (P07949 whole entry V804M) above, with M804L counted along it

CCOCCn1cc(C(=O)Nc2ccc(-n3nc(-c4cccnc4)cc3C(F)(F)F)cn2)ccc1=O [BI 1935]
residual activity [1]: 100% | residual activity [2]: 100% | residual activity [3]: 79% | residual activity [4]: 100% | residual activity [5]: 100% | residual activity [6]: 100% | residual activity [7]: 92% | residual activity [8]: 85% | residual activity [9]: 100% | residual activity [10]: 88% | residual activity [11]: 98% | residual activity [12]: 100% | residual activity [13]: 65% | residual activity [14]: 98% | residual activity [15]: 96% | residual activity [16]: 97% | residual activity [17]: 96% | residual activity [18]: 96% | residual activity [19]: 110% | residual activity [20]: 112% | residual activity [21]: 100% | residual activity [22]: 96% | residual activity [23]: 100% | residual activity [24]: 100% | residual activity [25]: 100% | residual activity [26]: 89% | residual activity [27]: 99% | IC50 [28]: 7 nM (active) | inhibition (Rattus norvegicus): -5.52% | residual activity [29]: 86% | residual activity [30]: 90% | residual activity [31]: 93% | residual activity [32]: 98% | residual activity [33]: 83% | residual activity [34]: 84% | residual activity [35]: 61% | residual activity [36]: 100% | residual activity [37]: 100%

Reference: ChEMBL document CHEMBL4507283, “Data for DCP probe BI-1935” (2021)
